US9624288B2, “Engineered receptors and their use” (University of Pittsburgh—Of the Commonwealth System of …, priority 2012, dated 2017)
Like-named read-outs stand apart in the source and are kept apart here.

Legend:
[1] = tested on: CFA-induced inflammation of the hind paw; experiment: Plantar (Hargreaves) test of thermal hypersensitivity after CFA-induced inflammation; format: in vivo, rat
Description: The plantar sensitivity to heat-induced pain was examined using a plantar algesia meter (Model 390G; IITC Life Science, Woodland Hills, Calif.; active intensity, 23%). Rats were placed inside a plastic divider on a constant-temperature glass plate and acclimated to the environment for at least 20 minutes before testing. A heat source was focused directly onto the plantar surface of the hind paw. Once activated, the apparatus applied a continuous heat stimulus to the plantar surface to evoke a distinctive reflex of paw withdrawal. The rats were examined with at least a five-minute interval between consecutive tests. Paw withdrawal latencies were recorded and averaged for each hind paw. A 22-second automatic cut-off time was set to prevent tissue damage from heating.

[2] = tested on: CFA-induced inflammation of the hind paw; conditions: for mechanical hypersensitivity, EG channel not activated: EG rats before cysteamine versus control group
Description: In one experiment, 8 rats were assigned to two groups to receive either EG expression plasmid or the control plasmid […] the EG insertion. […] Thereafter, inflammation was induced in the same hind paw by complete Freund's adjuvant (CFA) injection (50 μl). Hypersensitivity was measured using a Von Frey pain-testing device after CFA injection. This test measures the maximum force applied to the paw through a flexible thin wire before paw withdrawal. Note that this version of the channel design, EG3 (SEQ ID NO: 12), requires a small agonist molecule (propylamine or cysteamine) to open the Cl^− channels.
Rats were randomly assigned to two groups to receive a subcutaneous injection of 1 mg (in 200 μl) purified EG expression vector into the left hind paw or the control plasmid vector without the EG insertion in an identical fashion. […] After CFA injections, the rats were tested both before and after cysteamine administration to assess the specific analgesic effects from the expressed EG channels.
The Institutional Animal Care and Use Committee at the University of Pittsburgh approved all animal procedures used in the studies. Male Sprague-Dawley rats, weighing 220-250 g, were obtained from Harlan Laboratories, allowed to acclimate to the housing and experimental facilities, evaluated for baseline behavioral response to thermal and mechanical pain, and then subjected to inflammatory pain model and behavioral testing. The expression vectors, 1000 μg in a volume of 200 μl phosphate-buffered saline (PBS), were injected directly into the plantar of the left hind paw with a 27-gauge needle under brief 2.5% isoflurane anesthesia. One week after the vector injection, 50 μl of CFA (Sigma, St. Louis, Mo., USA) were injected into the same hind paw subcutaneously with a 27-gauge needle under brief isoflurane anesthesia, as described previously {Fraser, 2000 #180}.
Animals were placed above a grid floor inside a plastic divider. Thresholds to the mechanical pressures applied directly onto the plantar by a blunt metal filament of 100 mm in length and 0.38 mm in diameter were assessed using a custom-made von Frey apparatus. The apparatus uses a high precision load cell (100 g capacity and 0.01 g accuracy) interfaced with a PASPORT load cell amplifier (Model PS-2205, PASCO Scientific, Roseville, Calif.) for continuously measuring the forces applied to the plantar through the metal filament. The DataStudio software from PASCO Scientific was used to record the entire time course of the applied forces and the maximum force immediately before the paw withdrawal. The threshold values were determined as a mean of at least three separate measurements under each testing condition.
Both von Frey and plantar tests were conducted using the schedule as depicted in FIG. 3a. On each testing day after CFA injection, behavioral evaluations were repeated before and at least 15 min after cysteamine administration. Cysteamine (500 μl of 100 mM solution in PBS) was injected subcutaneously elsewhere on the body to prevent tissue damage from repeated injections.

[3] = prescription drug for cystinosis; cited from earlier work
[4] = target: T1, EG3 (SEQ ID NO: 12) ELIC-GlyR (EG) Cl- channel (Dickeya chrysanthemi, UniProt P0C7B7, INS163G); experiment: Two-electrode voltage clamp, amine agonist activation of the EG channel in Xenopus oocytes; format: cell-based, Erwinia chrysanthemi / human; conditions: for Hill slope / Hill coeff.: agonist dose response on EG channel
T1 construct: expressed in transfected cells; host or cells: Xenopus laevis oocytes injected with construct DNA in the pAAV vector
Description: (§1) For pH measurements, 10 mM MES was added. […] Non-linear regressions were performed using Prism software (Graphpad). […] (FIG. 2).

[5] = target: T2, EGRAFY mutant (R91A, F188Y; SEQ ID NO: 15) (Dickeya chrysanthemi, UniProt P0C7B7, F187Y/INS163G/R91A); experiment: Two-electrode voltage clamp, amine agonist activation of the EGRAFY mutant in oocytes; format: cell-based, Erwinia chrysanthemi / human
T2 construct: expressed in transfected cells; host or cells: Xenopus laevis oocytes
Description: as §1

[6] = target: EG channel (Dickeya chrysanthemi, UniProt P0C7B7, INS163G)
Description: Non-linear regressions were performed using Prism software (Graphpad).

[7] = tested on: ELIC-GlyR chimeras; experiment: Cysteamine response of ELIC-GlyR chimera constructs in Xenopus oocytes; format: cell-based, Erwinia chrysanthemi / human
Description: The EG chimera was constructed by fusing the extracellular domain of ELIC with the transmembrane domain of the α1 subunit of human GlyR. Five constructs were made to test the importance of interface elements at the fusion junction (pre-TM1), the loop between transmembrane helices 2 and 3 (TM23), and C-terminus (Figure S1 a). In addition, the long cytoplasmic loop was removed to facilitate homogeneous expression (i.e., “VSR . . . KID” was replaced with “[…]”). All designed constructs expressed functional channels in Xenopus oocytes and were responsive to the agonist cysteamine. The constructs mostresponsive to cysteamine, EG and EGd (Figure S1 b), included a native GlyR TM23 loop and an ELIC C-terminus (Figure S1). The fusion junction had less effect on cysteamine response (compare EG and EGd).

T2 sequence (P0C7B7 other isoform, or with tags, fused parts or gaps R91A/INS163G/F187Y): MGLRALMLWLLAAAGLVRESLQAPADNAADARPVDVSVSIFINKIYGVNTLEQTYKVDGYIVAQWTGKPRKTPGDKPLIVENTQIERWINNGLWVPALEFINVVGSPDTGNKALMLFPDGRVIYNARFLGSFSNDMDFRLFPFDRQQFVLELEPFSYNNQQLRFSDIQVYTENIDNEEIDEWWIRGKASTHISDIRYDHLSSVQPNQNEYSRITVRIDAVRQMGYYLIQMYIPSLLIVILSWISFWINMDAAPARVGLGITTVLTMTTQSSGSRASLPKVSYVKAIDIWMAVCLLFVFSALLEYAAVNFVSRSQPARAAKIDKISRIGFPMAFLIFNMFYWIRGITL

Molecule: NCCS [cysteamine]
- thermal hypersensitivity after cysteamine administration ([1]; control plasmid rats (no EG), after CFA): not inherently an analgesic
- thermal hypersensitivity after cysteamine administration ([1]; rats expressing EG, after CFA): significantly attenuated
- mechanical hypersensitivity / pain scores after cysteamine administration ([2]; control plasmid rats (no EG), after CFA, listed as Cysteamine): no analgesia
- safety in clinical use [3]: safe with no psychoactive effects
- EC50 [4]: 960 ± 120 µM
- Hill slope / Hill coeff. [4]: 1.1±0.1

Molecule: CCCN [propylamine]
- increase in potency in the EGRAFY mutant as compared to the EG channel [5]: ~3 orders of magnitude
- Hill coeff. ([5]; EGRAFY mutant, n=6): 0.98±0.07
- EC50 [4]: 740 ± 110 µM
- Hill slope / Hill coeff. [4]: 0.5±0.04

B1: EG channel: ELIC extracellular domain fused to human GlyR α1 transmembrane domain; amine-gated Cl- channel, delivered as expression plasmid in vivo (protein)
chain: MGLRALMLWLLAAAGLVRESLQAPADNAADARPVDVSVSIFINKIYGVNTLEQTYKVDGYIVAQWTGKPRKTPGDKPLIVENTQIERWINNGLWVPALEFINVVGSPDTGNKRLMLFPDGRVIYNARFLGSFSNDMDFRLFPFDRQQFVLELEPFSYNNQQLRFSDIQVYTENIDNEEIDEWWIRGKASTHISDIRYDHLSSVQPNQNEFSRITVRIDAVRQMGYYLIQMYIPSLLIVILSWISFWINMDAAPARVGLGITTVLTMTTQSSGSRASLPKVSYVKAIDIWMAVCLLFVFSALLEYAAVNFVSRSQPARAAKIDKISRIGFPMAFLIFNMFYWIRGITL
modifications: Engineered Chloride Channel Receptor
notes: ELIC extracellular domain fused to human GlyR α1 transmembrane domain; amine-gated Cl- channel, delivered as expression plasmid in vivo
- shift in reversal potential upon replacing Na+ with choline [6]: no significant shift
- shift in reversal potential upon replacing Cl- with gluconate ([6]; 130 mM external solution): 50 mV
- cysteamine response of the construct [7]: mostresponsive
- hypersensitivity to heat-induced pain, EG channel not activated ([1]; EG rats before cysteamine versus control group): partially alleviated
- latency to paw withdrawal, EG injection compared to the control ([1]; after CFA, EG n=4, control n=5): significant attenuation of thermal hypersensitivity
- mechanical hypersensitivity, EG channel not activated ([2]; after CFA): did not produce measurable changes
- mechanical hypersensitivity, EG channel not activated ([2]; after CFA, listed as EG): no measureable effects
- mechanical hypersensitivity, EG channel not activated ([2]; after CFA, listed as EG channels): little measurable changes
- basal mechanical and thermal thresholds ([2]; rat, in vivo): neither EG nor the control plasmids caused measureable changes
